Experiments:
[1] = Pilot feeding study, food supplemented with esters of β-hydroxybutyrate and butanediol; type: in vivo, C57BL/6 male mice; details: 10% w/w in chow
Text: Different esters of β-hydroxybutyrate and butanediol were synthesized as described above and purified for testing in mice. The esters of β-hydroxybutyrate and butanediol that were supplemented into the diet of the mice in this study were as follows: 1) C8 diesters of butanediol (C8x2-BD); 2) C8 monoesters of β-hydroxybutyrate (C8-BHB); 3) C6 diesters of β-hydroxybutyrate (C6x2-BHB); 4) C6 monoesters of β-hydroxybutyrate (C6-BHB); and 5) C6 diesters of butanediol (C6x2-BD). Food compositions supplemented with 1,3-butanediol were also tested. Compounds were mixed at 10% w/w in ground normal chow (20% calories from protein) to match standard vivarium feed. The food was provided in a glass jar inside the animal cage. n=2 mice/condition, 18 mice total. All mice were 12 month-old C57BL/6 males. Mice were placed in individual cages to record food intake more precisely. Food was switched back to normal chow at 72 hrs (ground and in a glass jar).

APPJ20 mice = assay: EEG epileptiform spikes before and after intraperitoneal injection of C6-BHB; type: in vivo
Protocol: C6 and C8 esters of butanediol and C6 and C8 esters of β-hydroxybutyrate were synthesized as described above. The C6 ester of β-hydroxybutyrate was tested for efficacy in suppressing spikes in APPJ20 mice by intraperitoneal injection into 1-2 year-old APPJ20 mice including both male and female mice. The APPJ20 mice were described in Example 5.
(§1) EEGs were recorded from APPJ20 mice before and after intraperitoneal injection of C6-BHB, or an equivalent volume of saline. Following completion of the first 50 min recording, the injection was performed. Mice were then allowed to recover for 20 minutes in their home cage, followed by the second 50 min EEG recording. Blood was drawn immediately following completion of the second EEG session in order to measure plasma BHB levels (as described in Example 4). The lower of the two previously tested doses from Example 4 was injected, 50 μL per 30 g body weight, which is approximately 1.5 g/kg and approximately 0.2 millimoles.
(§2) During the EEG recordings, mice were freely moving in a transparent cylinder approximately the size of a home cage. Methodology for recording and analysis of EEGs and video tracking for movement was described in Example 5. Methodology for blood draws and plasma BHB measurement was described in Example 4.
The study used a cross-over design where all mice were injected with both C6-BHB and normal saline on different days, with at least 48 hours between injections. Data analysis was limited to mice that completed all injections and EEG recordings.

[2] = Plasma BHB after intraperitoneal injection in APPJ20 mice; type: in vivo; details: approximately 70-80 minutes after i.p. injection; from a median of approximately 200 μM
Protocol: as §1, §2

[3] = Plasma BHB levels after intraperitoneal injection of C6 and C8 esters; type: in vivo, wild-type C57BL/6 male mice; details: for blood BHB levels: intraperitoneal injection, 50 uL and 100 uL (approx. 1-3 g/kg), blood up to 6 hours after injection
Protocol: C6 and C8 esters of butanediol and C6 and C8 esters of β-hydroxybutyrate were synthesized as described above and purified for testing in wild-type C57BL/6Ncrl male mice obtained from Charles River Laboratories. Mice were 8 months old at the time of the experiment. The biological function of C6 and C8 esters of butanediol and β-hydroxybutyrate was tested by intraperitoneal injection at two doses each, 50 uL and 100 uL. Injection was performed approximately 9 am (mice are maintained on 7a-7p light-dark cycle) and mice had access to food and water at all times. The molar quantity injected varied from 0.13-0.41 millimoles depending on the compound and dose. The subject mice weighed approximately 30 grams, so the quantity of compound injected ranged approximately from 1 g/kg to 3 g/kg. For comparison, these amounts could theoretically supply about 1/20 of a mouse's daily caloric needs—equivalent in humans to around 100 calories. Blood was drawn by distal tail nick just prior to injection (baseline) and at 30 min, 1 hour, 2 hours, 4 hours, and 6 hours after injection. Approximately 40 uL of blood was collected into lithium-heparin microvettes (Sarstedt CB-300LH) and subsequently centrifuged 15 min at 1500×G at 4° C. to separate plasma. Plasma BHB levels were determined by a colorimetric enzymatic assay (Stanbio Laboratory 2440-058).

[4] = Pilot feeding study, food supplemented with C6 monoester of β-hydroxybutyrate; type: in vivo, C57BL/6 male mice
Protocol: C6 monoester of β-hydroxybutyrate was synthesized as described above and purified for testing in mice. The C6 monoester of β-hydroxybutyrate was mixed into ground control food (10% calories from protein), the same control diet used in the above examples involving ketogenic and control diet. The food was placed in a glass jar inside the animal cage at the start of the nighttime feeding cycle, 19:00 h. Different concentrations of the C6 monoester of β-hydroxybutyrate (w/w) were mixed into the control diet to determine which concentration was sufficient to raise BHB levels in the mice. n=4 mice/condition (2 mice per cage). All mice were 12 month-old C57BL/6 males.

[5] = Feeding study, food supplemented with C6 diesters of β-hydroxybutyrate; type: in vivo, C57BL/6 male mice; details: 10% w/w in diet, eighth night
Text: Based on the results of the above Pilot studies, the C6 diesters of β-hydroxybutyrate were selected for a longer study with a greater number of mice to see if it would remain ketogenic even after food intake normalized. C6 diesters of β-hydroxybutyrate were synthesized as described above and purified for testing in mice. The C6 diesters of β-hydroxybutyrate were mixed at 10% w/w into ground standard chow diet (20% calories from protein), which was re-formed into pellets. Re-pelleted food was used to minimize any variable effects from a change in diet texture to ground.
The pelleted food was consumed by the mice after being placed in a glass jar in the animal cage. Four mice per diet were tested, with the mice individually caged. All mice were 12 month-old C57BL/6 males. Daily weight and caloric intake was monitored and blood was drawn for glucose and β-hydroxybutyrate levels on the eighth night. […] By the 7th night, the weights of the mice stabilized and 24 hour caloric intake was similar between the control diet and the mice that consumed food supplemented with C6 esters of β-hydroxybutyrate.

With `CCCCCC(=O)OCC` [C6, reference compound] the hypoglycaemias [1] was “can be explained by fasting”.
For `CCCCCC(=O)O[C@H](C)CC(=O)OCC` [C6-BHB], the epileptiform spikes (APPJ20 mice; after i.p. 50 μL per 30 g body weight, saline 1.25 spikes/min) was 0.82 spikes/min, the “reduction of epileptiform spikes compared to saline injection” value (APPJ20 mice; i.p. 50 μL per 30 g body weight (approx. 1.5 g/kg), 50 min EEG) was “approximately 35%” and the “epileptiform spikes after injection” value (APPJ20 mice; i.p. injection, 50 min EEG) was “reduces spikes compared to both pre-injection baselines and injection of saline”. The “spike reduction compared to after saline, at the individual mouse level” value (APPJ20 mice; i.p. injection, P<0.05) was “significant reductions for most mice”, the “plasma BHB levels, median” value [2] was “approximately 600 μM” and the side effect observed ([3]; higher dose (100 uL), intraperitoneal) was “mild sedation”. For the same compound, the “blood BHB levels” value [3] was “increased BHB levels to that seen on a ketogenic diet (0.5-2 mM), or after an overnight fast (1-3 mM)”, the hypoglycaemias [1] was “likely a result of the compound” and the “BHB level in the blood” value ([4]; 2.5% or 5% by weight in food) was “slight increase in BHB level in the blood”. For the same compound, the “BHB level in the blood against the targeted threshold” value ([4]; 2.5% or 5% by weight in food) was ≤ 500 and the “β-hydroxybutyrate concentration in blood” value ([4]; 10% or 20% by weight in food, probably explained by fasting) was “greater increase in β-hydroxybutyrate concentration”.
In the case of `CCCCCCOC(=O)C[C@@H](C)OC(=O)CCCCC` [C6x2-BHB], the “plasma β-hydroxybutyrate against targeted threshold” value [5] is reported as ≥ 500 µM and the “β-hydroxybutyrate plasma concentrations versus control diet” value ([5]; normal caloric intake) is reported as “greater β-hydroxybutyrate plasma concentrations”.
For `CCCCCCCC(=O)O[C@H](C)CC(=O)OCC` [C8-BHB], the “blood BHB levels” value [3] was “increased BHB levels to that seen on a ketogenic diet (0.5-2 mM), or after an overnight fast (1-3 mM)”, the hypoglycaemias [1] was “can be explained by fasting” and the “blood concentration of β-hydroxybutyrate” value ([1]; targeted 500 μM threshold) was “high BHB value”.

From US10562839B2, “Medium chain fatty acid esters of β-hydroxybutyrate and butanediol and compositions and methods for using same” (The J. David Gladstone Institutes, priority 2016, dated 2020)
